Source: patent US5189033A, “Tricyclic heterocycles” (Imperial Chemical Industries PLC, priority 1991, dated 1993)
Like-named read-outs stand apart in the source and are kept apart here.

Columns and labels:
[1] = target: T1, EP1 receptors (PGE2-induced contractions of the ileum) (Cavia porcellus, UniProt A0A286XHJ6); test: Test (a): in-vitro guinea pig ileum assay, inhibition of PGE2-induced contractions; conditions: PGE2-induced contraction of guinea pig ileum, read-out: pA2 value (converted)
T1 construct: ileum was immersed in oxygenated Krebs solution containing indomethacin; from tissue; host or cells: guinea pig ileum
T1 sequence (A0A286XHJ6 1-405): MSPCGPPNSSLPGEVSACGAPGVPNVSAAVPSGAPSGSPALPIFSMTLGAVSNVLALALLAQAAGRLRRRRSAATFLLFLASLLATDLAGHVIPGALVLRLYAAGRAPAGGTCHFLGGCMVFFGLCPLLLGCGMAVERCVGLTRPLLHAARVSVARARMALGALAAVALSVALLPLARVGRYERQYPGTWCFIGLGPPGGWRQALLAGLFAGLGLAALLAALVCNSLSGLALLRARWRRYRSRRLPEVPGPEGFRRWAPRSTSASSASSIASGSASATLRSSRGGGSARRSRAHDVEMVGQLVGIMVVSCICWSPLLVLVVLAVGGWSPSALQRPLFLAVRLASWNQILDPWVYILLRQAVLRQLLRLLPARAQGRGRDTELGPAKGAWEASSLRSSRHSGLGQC
Protocol: (a) an in-vitro guinea pig ileum assay which assesses the inhibitory properties of a test compound against PGE2 -induced contractions of the ileum; ileum was immersed in oxygenated Krebs solution containing indomethacin (4 μg/ml) and atropine (1 μM) and which was maintained at 37° C.; the ileum was subject to a resting tension of 1 g; a control dose response curve for PGE2 -induced contraction of the ileum was obtained; test compound (dissolved in dimethylsulphoxide) was added to the Krebs solution and a dose response curve for the PGE2 -induced contraction of the ileum in the presence of the test compound was obtained; the pA2 value for the test compound was calculated;
Prostanoid receptors and in particular receptors for PGE2 have been tentatively characterised by Kennedy et al. (Advances in Prostaglandin, Thromboxane and Leukotriene Research, 1983, 11, 327).

[2] = system: writhing induced by the intraperitoneal administration of phenylbenzoquinone; test: Test (c): in-vivo assay in mice, writhing induced by phenylbenzoquinone (PBQ); conditions: at 100 mg/kg, oral dosing
Source text: (c) an in-vivo assay in mice which assesses the inhibitory properties of a test compound against writhing induced by the intraperitoneal administration of phenylbenzoquinone (hereinafter PBQ) using the procedure disclosed in European Patent Application No. 0218077.

[3] = system: writhing induced by the concomitant administration of PGE2 and bradykinin; test: Test (b): in-vivo assay in mice, writhing induced by PGE2 and bradykinin; conditions: Mus musculus, oral dosing, read-out: ED50 for antagonism of the writhing response
PGE2 receptors = conditions: cited from earlier work

SMILES	Kb [1]	activity in Test (c) [2]	ED50 [3]	block of the effect of PGE2 (PGE2 receptors; cat trachea or chick ileum)	block of the effect of PGE2 (PGE2 receptors; guinea pig ileum or dog fundus)
O=C(O)c1cccc(CN2Cc3ccccc3Oc3ccc(Cl)cc32)c1 [Example 1, 3-(8-chloro-10,11-dihydrodibenzo[b,f]-[1,4]oxazepin-10-ylmethyl)benzoic acid]	39.8 nM	significant activity			
O=C(O)c1ccc(CN2Cc3ccccc3Oc3ccc(Cl)cc32)cc1 [Example 2, 4-(8-chloro-10,11-dihydrodibenzo[b,f][1,4]oxazepin-10-ylmethyl)-benzoic acid]	100 nM		19 mg/kg		
CC(=O)NNC(=O)N1Cc2ccccc2Oc2ccc(Cl)cc21 [SC-19220]				not on other tissues	blocks the effect of PGE2
